What was measured:
thrombocytes = assay: ADP-induced aggregation of thrombocytes in vitro (Born method, plasma enriched with thrombocytes); format: cell-based, rabbit; conditions: 3-minute incubation, ADP 10^−5 M
Description: The aggregation of thrombocytes was studied by the Born method based on determination of the changes in the optical density of plasma enriched with thrombocytes after its incubation with an aggregation inductor.
Adenozinediphosphoric acid (ADP) was selected as an aggregation inductor, which in fact is an aggregation generator. Use was made of a sample (registration number 885) of the Sigma Diagnostics Company (USA) in final concentration of 10^−5 M.
The experiments were carried out on male rabbits of the “Chinchilla” breed having a mass of 2.7±0.3 kg. 18-24 hours prior to the experiment they were deprived of feed while preserving free access to water.
To obtain plasma enriched with thrombocytes, blood was taken from a cut of a marginal vein of the rabbit ear, the sample was stabilized with 3.8% of sodium citrate solution in a ratio of 9:1 and centrifuged at 200 g (1000 rev/min) for 10 minutes. The top supernatant layer enriched with thrombocytes was transferred by an automatic dropper into a silicone test tube and kept at 37° C. The plasma enriched with thrombocytes contained, on the average, […]. If this content exceeded the specified 3×10^8 blood platelets in 1 liter, this sample was diluted to the necessary concentration with plasma deprived of thrombocytes, which was obtained by centrifuging blood at 650 g during 10 minutes.
The measurements of the optical density of the samples were made on two-channel aggregometer of the “Chronolog” Company (USA). A flask containing 490 mkl of plasma rich with thrombocytes was placed in a device, into which a magnetic agitator covered with Teflon was lowered. The index of maximum amplitude of aggregation (MA) in percent of a fall of the plasma optical density under effect of the aggregation inductor was recorded. The control index MA of plasma was compared with the MA of plasma incubated for 3 minutes with different concentrations of the compounds: from 10^−3 to 10^−7 in vitro experiments or with plasma obtained 15, 30, 60 and 120 minutes after intravenous administration of different doses of the compounds in vivo experiments.
The process of aggregation of thrombocytes was recorded with the help of a computer; on the monitor screen the there were depicted curves reflecting changes of the optical density of the plasma enriched which was taken as a standard 100% compared to the optical density of the non-thrombocyte plasma taken for 0% content of thrombocytes.
Under in vitro conditions a flask was filled with blood plasma enriched with thrombocytes, to which an aggregation inductor ADP was added at a concentration of 10^−5 M, incubated for 3 minutes, and then the compounds according to the invention were introduced directly into the flask. Their action by aggregation of thrombocytes was studied after 3-minute incubation in a wide range of concentrations from 10^−3 to 10^−7 M to minimum concentration of 10^−7M not inducing no effect of suppressing the aggregation.

[1] = Electrochemical activity: polarographic reduction on mercury dripping electrode; format: physicochemical; conditions: for i: 2.0% sodium chloride background, 9·10^−4 M; for i / −E1/2: 37° C., forward trace, average for the group of compounds; for −E1/2: vs SCE
Description: The study was carried out on a general-purpose polarograph PU-1 with a two-coordinate recorder of the “LKD” type using a three-electrode thermostatically controlled polarographic cell and mercury dripping electrode (MDE) with forced separation of the drop and a dropping period of 0.5 second. A platinum wire was used as an auxiliary electrode and a saturated calomel electrode (SCE) was used as a control electrode.
2.0% solutions of sodium chloride having pH 7.0, 7.2, 7.4, 7.6 were used as a background; the pH values of the background solution were corrected by a solution of sodium hydroxide. The polarographic cell was filled with 5.0 ml of the background solution and for 5 minutes was purged with nitrogen for removing the dissolved oxygen. Then 0.5 ml of solution of the studied substance was added to the background solution, and the polarogram was recorded as a polarographic wave. The concentration of the compounds in the polarographic cell was 9·10^−4 M.
The pH was measured on the pH-meter with an accuracy of +0.05 pH units. The polarographic measurements were carried out at a temperature of 37° C. The recording of polarograms of the investigated materials was effected under conditions of DC current at a scanning rate of the potential 10.0 mV/s with a active scanning stroke from a potential 0 to −0.5 V and sweep retrace from a −0.5 V to 0. The electric-current sensitivity was 5.0 mkA. The scale by the coordinate of the potentials was 50.0 mV/cm. The values of potentials of the half-wave E1/2 of the investigated materials are given with respect to the SCE potential.
The polarogram parameters such as a limiting current ilim and E1/2 were determined by the graphic method. The number of electrons participating in the reaction was calculated on the basis of the analysis of the polarographic wave using the Geirovsky-Ilkovich equation.
The calculation of the number of electrons participating in the reduction reaction was effected using the Geirovsky-Ilkovich equation: […]

[2] = system: embryonic fibroblasts of mouse NIH-3T3; assay: Effect on endocellular pHi of fibroblasts (microspectrofluorimetry with FDA / BCECF-AM); format: cell-based; conditions: 10 mkM in medium with serum
Description: The effect of the compounds according to the invention on the endocellular pH, embryonic fibroblasts of mouse NIH-3T3 supplied by the All-Russian Collection of Cellular Cultures of the Institute of Cytology of the Russian Academy of Sciences St. Petersburg was investigated. The cells were grown in the DMEM (Sigma) medium containing 2.2 g/l of sodium bicarbonate with addition of 80.0 mkg/ml of gentamicin and 10.0% embryonal veal serum at a temperature of 37° C. in an atmosphere containing 5.0% of carbon dioxide. For these experiments use was also made of a medium buffer with 5.0 mM of HEPES and 15.0 mM of sodium bicarbonate without serum or with addition of 5.0% serum. The cells were calculated with the help of a hemocytometer. A share of the dead cells was determined by colouring trypan blue.
The measurements of the endocellular pHi were carried out with the help of colorants FDA (Sigma) and BCECF-AM (Calbiochem) on a microspectrofluorimeter by a standard technique (Koshevoy Yu. V., Akatov V. S., Grobova M. E. Microspectrofluorimeter for measuring endocellular pH (micro pH)”. Devices and equipment for studies in the field of physical-and-chemical biology and biotechnology. Pushchino, 1990. P. 8-14).
The cells at a temperature of 37° C. were colored within 5 minutes with 5.0 mkM PDA that before the colouring was prepared from a 10.0 mM solution in acetone by dilution for 30 minutes in a phosphatic buffer to 0.1 mM or 2.0 mkM 1.0 mM solution BCECF-AM in DMSO.
The two-wave method of determining pHi was used based on the ratio intensities of fluorescence of the cells on two wavelengths (Akatov V. S. et all), “Endocellular pH and substrate dependence of proliferation of fibroblasts of Chinese hamster, Cytology, 1991, 33 (7), p. 86-94). The fluorescence was excited by light at λ=490 nm, the emission was recorded simultaneously with two photomultipliers on wavelengths λ=535 nm and λ=570 nm. The K-ratio of the fluorescence on two wavelengths was determined with a deduction of the background fluorescence of the medium near the investigated cells for 40-60 individual cells, which are then averaged taking into account the measurement error. A thermostatically controlled table was used that allowed measurements to be conducted at a temperature of 37° C. An account was taken for the photodynamic damage of the pigmented cells during long-time continuous illumination by excited light. The readings were taken from a section of the preparation exposed to light for not more than 5 minutes.
The calibration curves for determining the absolute pHi values by magnitude K were constructed using the Thomas technique (Thomas J. A., Bushbaum R. N., Zimniak A. w Racker E. “Intracellular pH measurements in Ehrlich ascites tumor cells utilizing spectroscopic probe generated in situ”, Biochemistry, 1979, v. 18, p. 2210-2218), for which case the pigmented cells treated for 5-10 minutes with carboxyacidic nigericyn (Calbiochem) at a concentration of 5-10 mkg/ml was placed in a solution with a high content of potassium—130 mM KCl, 1.0 mM MgCl2, 20.0 mM of HEPES) and with pH values from 6.2 to 7.6. The K values were measured in the media with different pH assuming that pHi of the cells equals to the pH of the medium due to the action of nigericyn, which exchanges potassium ions for protons and at a high content of potassium in the medium counterbalances the pH of the medium and cells. Calibration curves were used based on the fluorescence of same medium with addition of 5.0 mkM of fluorescence or BCECF were used to the control the stability of the of the instrument readings.
The cells were colored by pigment BCECF-AM and pHi was measured 10 minutes after incubation in the medium with an appropriate pH value. […]

[3] = system: embryonic fibroblasts of mouse NIH-3T3; conditions: cells of mice NSO and NIH-3T3, 1-5 mkM, within 15-20 minutes; cited from earlier work

Compound | MA - fall of optical density of plasma, % to the standard (thrombocytes; 10^−3 M, control 60.8 ± 3.4) | MA - fall of optical density of plasma, % to the standard (thrombocytes; 10^−4 M, control 60.0 ± 2.1) | MA - fall of optical density of plasma, % to the standard (thrombocytes; 10^−5 M, control 52.5 ± 2.1) | MA - drop of optical density, % (thrombocytes; 10^−6 M, control 52.8 ± 1.8) | MA - drop of optical density, % (thrombocytes; 10^−7 M, control 51.5 ± 2.1) | number of electrons participating in the reduction reaction ([1]; calculated with Geirovsky-Ilkovich equation) | i ([1]; pH 7.0) | −E1/2 ([1]; pH 7.0) | i ([1]; pH 7.2) | −E1/2 ([1]; pH 7.2) | i ([1]; pH 7.4) | −E1/2 ([1]; pH 7.4) | i ([1]; pH 7.6) | −E1/2 ([1]; pH 7.6) | half-wave potential more positive at reverse stroke compared to forward stroke ([1]; polarograms of reverse stroke) | rise of pHi [2] | increase of pHi [3]
O=c1[nH]n([C@@H]2O[C@H](CO)[C@@H](O)[C@H]2O)c(=O)c2nccc(O)c12.[Na].[Na] [Compound 4, disodium salt of 4-hydroxy-7-(βD-ribofuranosile)pyrido[2,3-d]-6H-pyridazine-5,8-dione] | 49.2 ± 2.3 % | 50.2 ± 2.0 % | 46.2 ± 3.1 % | 50.6 ± 3.1% | 49.9 ± 3.4% |  |  |  |  |  |  |  |  |  |  |  | 
O=c1[nH]n([C@@H]2O[C@H](CO)[C@@H](O)[C@H]2O)c(=O)c2ccccc12.[Na] [Compound 9, sodium salt of 2-(β-D-ribofuranosile)benzo[d]-3H-pyridazine-1,4-dione] | 47.3 ± 2.0 % | 53.1 ± 1.8 % | 41.4 ± 3.4 % | 49.4 ± 3.2% | 51.2 ± 1.7% |  |  |  |  |  |  |  |  |  |  |  | 
Nc1cccc2c(=O)n([C@@H]3O[C@H](CO)[C@@H](O)[C@H]3O)[nH]c(=O)c12.[Na] [Compound 10, sodium salt of 5-amino-2-(CP (β-D-ribofuranosile)benzo[d]-3H-pyridazine-1,4-dione] | 46.2 ± 2.7 % | 48.7 ± 2.4 % | 40.2 ± 4.0 % | 48.4 ± 2.4% | 49.8 ± 2.0% | 4.09 | 0.23 ± 0.03 mkA | 0.092 ± 0.02 V | 0.30 ± 0.01 mkA | 0.09 ± 0.01 V | 0.29 ± 0.02 mkA | 0.092 ± 0.02 V | 0.31 ± 0.02 mkA | 0.09 ± 0.01 V | 30.0 mV |  | 
Nc1cnc2c(=O)[nH][nH]c(=O)c2n1.[Na] [Compound 28, sodium salt of 2-amino-pyrazine[2,3-d]-6H-pyridazine-5,8-dione] | 49.7 ± 2.2 % | 48.9 ± 2.4 % | 44.2 ± 2.7 % |  | 50.4 ± 3.0% |  |  |  |  |  |  |  |  |  |  |  | 
Nc1ncnc2c(=O)n([C@@H]3O[C@H](CO)[C@@H](O)[C@H]3O)[nH]c(=O)c12.[Na] [Compound 31, sodium salt of 4-amino-7-(β-D-ribofuranosile)pyrimido[4,5-d]-6H-pyridazine-5,8-dione] | 44.9 ± 2.3 % | 46.7 ± 2.2 % | 39.9 ± 2.1 % | 47.5 ± 1.7 % | 49.5 ± 1.2% |  |  |  |  |  |  |  |  |  |  |  | 
CC[C@@]1([C@@H]2O[C@@H]([C@H]3O[C@@](O)(CO)[C@H](C)C[C@@H]3C)C[C@@H]2C)CC[C@H]([C@]2(C)CC[C@]3(C[C@H](O)[C@@H](C)[C@@H]([C@@H](C)[C@@H](OC)[C@H](C)C(=O)O)O3)O2)O1 [monensine, reference compound] |  |  |  |  |  |  |  |  |  |  |  |  |  |  |  | 0.12 pH unit | 0.2 unit
